Data taken from patent publication US10640495B2, “Heterocycle derivatives having TrkA inhibitory activity” (Shionogi & Co., Ltd., priority 2015, dated 2020).

molecular target: human TrkA (Homo sapiens (Human), UniProt P04629); assay: Human TrkA inhibition assay (Test Example 2); format: biochemical; settings: Table 153, human TrkA inhibition; read-out: IC50
In short: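 Mobility-shift readout of phosphorylated versus unphosphorylated fluorescent peptide gave conversion ratio, normalized to DMSO and no-enzyme wells; IC50 by logistic fit of 10- or 15-point 3-fold dilutions. Conditions: 1 nmol/L enzyme, 15 min compound preincubation, then 500 μmol/L ATP plus 1.5 μmol/L peptide, 120 min, 37 °C.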

human TrkA, sequence (P04629 440-796): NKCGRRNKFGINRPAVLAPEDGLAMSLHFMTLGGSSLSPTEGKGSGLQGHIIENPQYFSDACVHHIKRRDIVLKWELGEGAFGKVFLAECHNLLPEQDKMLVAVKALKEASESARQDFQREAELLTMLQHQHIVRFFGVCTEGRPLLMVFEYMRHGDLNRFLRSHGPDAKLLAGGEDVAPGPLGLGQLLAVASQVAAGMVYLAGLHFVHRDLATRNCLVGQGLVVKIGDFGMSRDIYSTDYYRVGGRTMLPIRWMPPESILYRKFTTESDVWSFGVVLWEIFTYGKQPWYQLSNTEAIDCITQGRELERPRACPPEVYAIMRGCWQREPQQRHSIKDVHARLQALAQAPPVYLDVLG

Row | Compound | IC50
1 | COCCN1C[C@@H](NC(=O)Nc2c(C)c(-c3cnn(C)c3)nn2-c2ccccc2)[C@H](c2ccc(F)cc2)O1 (racemic) [Compound I-116] | < 100 nM
2 | COCCN1C[C@@H](NC(=O)Nc2c(C)c(-c3cnc(C)nc3)nn2-c2ccccc2)[C@H](c2ccc(F)cc2)O1 (racemic) [Compound I-117] | < 100 nM
3 | COCCN1C[C@@H](NC(=O)Nc2c(C)c(-c3cnc(N(C(=O)OC(C)(C)C)C4CC4)nc3)nn2-c2ccccc2)[C@H](c2ccnc(F)c2)O1 (racemic) [Compound I-120] | < 100 nM
4 | COCCN1C[C@@H](NC(=O)Nc2c(C)c(-c3cc(COC(C)=O)c(=O)n(C)c3)nn2-c2ccccc2)[C@H](c2ccc(F)c(F)c2)O1 (racemic) [Compound I-124] | < 100 nM
5 | COCCN1C[C@@H](NC(=O)Nc2c(C)c(-c3cc(CO)c(=O)n(C)c3)nn2-c2ccccc2)[C@H](c2ccc(F)c(F)c2)O1 (racemic) [Compound I-125] | < 100 nM
6 | COCCN1C[C@@H](NC(=O)Nc2c(C)c(-c3ccc(C#N)nc3)nn2-c2ccccc2)[C@H](c2ccc(F)c(F)c2)O1 (racemic) [Compound I-129] | < 100 nM
7 | COCCN1C[C@@H](NC(=O)Nc2c(C)c(-c3cnc4nccnc4c3)nn2-c2ccccc2)[C@H](c2ccc(F)c(F)c2)O1 (racemic) [Compound I-134] | < 100 nM
8 | COCCN1C[C@@H](NC(=O)Nc2c(C)c(-c3cnn(C)c3)nn2-c2ccccc2)[C@H](c2cnc(Cl)s2)O1 (racemic) [Compound I-137] | < 100 nM
9 | CNC(=O)c1cc(-c2nn(-c3ccccc3)c(NC(=O)N[C@@H]3CN(CCOC)O[C@H]3c3ccc(F)cc3)c2C)cn(C)c1=O (racemic) [Compound I-138] | < 100 nM
10 | CNC(=O)c1cc(-c2nn(-c3ccccc3)c(NC(=O)N[C@@H]3CN(CCOC)O[C@H]3c3cccc(F)c3)c2C)cn(C)c1=O (racemic) [Compound I-143] | < 100 nM
11 | CNC(=O)c1cc(-c2nn(-c3ccccc3)c(NC(=O)N[C@@H]3CN(CCOC)O[C@H]3c3ccc(F)c(F)c3)c2C)cn(C)c1=O (racemic) [Compound I-147] | < 100 nM
12 | CCN1C[C@@H](NC(=O)Nc2c(C)c(-c3cc(C(=O)NC)c(=O)n(C)c3)nn2-c2ccccc2)[C@H](c2ccc(F)c(F)c2)O1 (racemic) [Compound I-148] | < 100 nM
13 | CNC(=O)c1cc(-c2nn(-c3ccccc3)c(NC(=O)N[C@@H]3CN(Cc4ccco4)O[C@H]3c3ccc(F)c(F)c3)c2C)cn(C)c1=O (racemic) [Compound I-149] | < 100 nM
14 | CNC(=O)c1cc(-c2nn(-c3ccccc3)c(NC(=O)N[C@@H]3CN(Cc4ccc(C#N)o4)O[C@H]3c3ccc(F)c(F)c3)c2C)cn(C)c1=O (racemic) [Compound I-150] | < 100 nM
15 | CNC(=O)c1cc(-c2nn(-c3ccccc3)c(NC(=O)N[C@@H]3CN(Cc4csnn4)O[C@H]3c3ccc(F)c(F)c3)c2C)cn(C)c1=O (racemic) [Compound I-151] | < 100 nM
16 | COCCN1C[C@@H](NC(=O)Nc2c(C)c(-c3cnc4cccnc4c3)nn2-c2ccccc2)[C@H](c2ccc(F)c(F)c2)O1 (racemic) [Compound I-152] | < 100 nM
17 | COCCN1C[C@@H](NC(=O)Nc2c(C)c(C3=CCN(c4ncc(Cl)cn4)CC3)nn2-c2ccccc2)[C@H](c2ccc(F)c(F)c2)O1 (racemic) [Compound I-153] | < 100 nM
18 | COCCN1C[C@@H](NC(=O)Nc2c(C)c(-c3cnc(C)nc3)nn2-c2ccccc2)[C@H](c2cnc(Cl)s2)O1 (racemic) [Compound I-154] | < 100 nM
19 | COCCN1C[C@@H](NC(=O)Nc2c(C)c(-c3cnc(OC)nc3)nn2-c2ccccc2)[C@H](c2cnc(Cl)s2)O1 (racemic) [Compound I-157] | < 100 nM
20 | COCCN1C[C@@H](NC(=O)Nc2c(C)c(-c3cnc(C)nc3)nn2-c2ccccc2)[C@H](c2ccccc2)O1 (racemic) [Compound I-160] | < 100 nM
21 | COCCN1C[C@@H](NC(=O)Nc2c(C)c(-c3cnc4c(c3)nnn4C)nn2-c2ccccc2)[C@H](c2ccccc2)O1 (racemic) [Compound I-162] | < 100 nM
22 | CNC(=O)c1cc(-c2nn(-c3ccccc3)c(NC(=O)N[C@@H]3CN(CCOC)O[C@H]3c3ccccc3)c2C)cn(C)c1=O (racemic) [Compound I-163] | < 100 nM

Further lines, results first:

Row | IC50 | Compound
23 | < 100 nM | CCNC(=O)c1cc(-c2nn(-c3ccccc3)c(NC(=O)N[C@@H]3CN(CCOC)O[C@H]3c3ccnc(F)c3)c2C)cnc1OC (racemic) [Compound I-110]
24 | < 100 nM | COCCN1C[C@@H](NC(=O)Nc2c(C)c(-c3cnc(OC)c(C(=O)NC4CCOCC4)c3)nn2-c2ccccc2)[C@H](c2ccnc(F)c2)O1 (racemic) [Compound I-111]
25 | < 100 nM | COCCN1C[C@@H](NC(=O)Nc2c(C)c(-c3cnc(OC)c(C(=O)NC4CCS(=O)(=O)CC4)c3)nn2-c2ccccc2)[C@H](c2ccnc(F)c2)O1 (racemic) [Compound I-112]
26 | < 100 nM | COCCN1C[C@@H](NC(=O)Nc2c(C)c(-c3cnc4c(c3)c(C)nn4C)nn2-c2ccccc2)[C@H](c2ccnc(F)c2)O1 (racemic) [Compound I-114]
27 | < 100 nM | COCCN1C[C@@H](NC(=O)Nc2c(C)c(-c3cnc(C4CC4)nc3)nn2-c2ccccc2)[C@H](c2ccnc(F)c2)O1 (racemic) [Compound I-115]
28 | < 100 nM | COCCN1C[C@@H](NC(=O)Nc2c(C)c(-c3cnc4c(c3)nnn4C)nn2-c2ccccc2)[C@H](c2ccc(F)cc2)O1 (racemic) [Compound I-118]
29 | < 100 nM | COCCN1C[C@@H](NC(=O)Nc2c(C)c(-c3cnc4c(c3)oc(=O)n4C)nn2-c2ccccc2)[C@H](c2cnc(F)c(F)c2)O1 (racemic) [Compound I-123]
30 | < 100 nM | COCCN1C[C@@H](NC(=O)Nc2c(C)c(-c3cnc4c(c3)nnn4C)nn2-c2ccccc2)[C@H](c2ccc(F)c(F)c2)O1 (racemic) [Compound I-126]
31 | < 100 nM | COCCN1C[C@@H](NC(=O)Nc2c(C)c(-c3cnc4c(c3)nnn4C)nn2-c2ccccc2)[C@H](c2cnc(F)c(F)c2)O1 (racemic) [Compound I-127]
32 | < 100 nM | COCCN1C[C@@H](NC(=O)Nc2c(C)c(-c3cnc(NC4CC4)nc3)nn2-c2ccccc2)[C@H](c2ccnc(F)c2)O1 (racemic) [Compound I-131]
33 | < 100 nM | COCCN1C[C@@H](NC(=O)Nc2c(C)c(-c3cnc(N(C)C)nc3)nn2-c2ccccc2)[C@H](c2ccnc(F)c2)O1 (racemic) [Compound I-132]
34 | < 100 nM | COCCN1C[C@@H](NC(=O)Nc2c(C)c(-c3cnn(C)c3)nn2-c2ccccc2)[C@H](c2cccc(F)c2)O1 (racemic) [Compound I-139]
35 | < 100 nM | COCCN1C[C@@H](NC(=O)Nc2c(C)c(-c3cnc(C)nc3)nn2-c2ccccc2)[C@H](c2cccc(F)c2)O1 (racemic) [Compound I-140]
36 | < 100 nM | COCCN1C[C@@H](NC(=O)Nc2c(C)c(-c3cnc4c(c3)ncn4C)nn2-c2ccccc2)[C@H](c2cccc(F)c2)O1 (racemic) [Compound I-141]
37 | < 100 nM | COCCN1C[C@@H](NC(=O)Nc2c(C)c(-c3cnc4c(c3)nnn4C)nn2-c2ccccc2)[C@H](c2cccc(F)c2)O1 (racemic) [Compound I-142]
38 | < 100 nM | COCCN1C[C@@H](NC(=O)Nc2c(C)c(-c3cnc(N4CC(O)C4)nc3)nn2-c2ccccc2)[C@H](c2ccnc(F)c2)O1 (racemic) [Compound I-144]
39 | < 100 nM | COCCN1C[C@@H](NC(=O)Nc2c(C)c(-c3ccn4c(C)nnc4c3)nn2-c2ccccc2)[C@H](c2ccnc(F)c2)O1 (racemic) [Compound I-155]
40 | < 100 nM | COCCN1C[C@@H](NC(=O)Nc2c(C)c(-c3ccn4nc(C)nc4c3)nn2-c2ccccc2)[C@H](c2ccnc(F)c2)O1 (racemic) [Compound I-156]
41 | < 100 nM | COCCN1C[C@@H](NC(=O)Nc2c(C)c(-c3ccc4nnc(C)n4c3)nn2-c2ccccc2)[C@H](c2ccnc(F)c2)O1 (racemic) [Compound I-158]
42 | < 100 nM | COCCN1C[C@@H](NC(=O)Nc2c(C)c(-c3cnc4c(c3)ncn4C)nn2-c2ccccc2)[C@H](c2ccccc2)O1 (racemic) [Compound I-161]
43 | < 100 nM | COCCN1C[C@@H](NC(=O)Nc2c(C)c(-c3cnc4c(c3)ncn4C)nn2-c2ccccc2)[C@H](c2ccnc(F)c2)O1 (racemic) [Compound I-164]
44 | < 100 nM | CCNC(=O)c1ncc(-c2nn(-c3ccccc3)c(NC(=O)N[C@@H]3CN(CCOC)O[C@H]3c3ccnc(F)c3)c2C)cc1C (racemic) [Compound I-167]

same assay, conditions: human TrkA 1 nmol/L, ATP 500 μmol/L, 120 min at 37° C.; read-out: IC50 values (TrkA phosphorylation inhibition)

Row | Compound | IC50
45 | COCCN1C[C@@H](NC(=O)Nc2c(C)c(-c3ccc(-c4nn[nH]n4)nc3)nn2-c2ccccc2)[C@H](c2ccc(F)c(F)c2)O1 (racemic) [Compound I-145] | 0.87 nM
46 | COCCN1C[C@@H](NC(=O)Nc2c(C)c(-c3cnn(C)c3)nn2C2CCC2)[C@H](c2ccc(F)c(F)c2)O1 (racemic) [Compound I-146] | 330 nM

The remaining lines, values ahead:

Row | IC50 | Compound
47 | 4 nM | COCCN1C[C@@H](NC(=O)Nc2c(C)c(-c3cnc(OC)nc3)nn2-c2ccccc2)[C@H](c2ccnc(F)c2)O1 (racemic) [Compound I-119]
48 | 2.7 nM | COCCN1C[C@@H](NC(=O)Nc2c(C)c(-c3cnc4c(c3)oc(=O)n4C)nn2-c2ccccc2)[C@H](c2ccnc(F)c2)O1 (racemic) [Compound I-122]
49 | 30 nM | COCCN1C[C@@H](c2ccnc(F)c2)[C@H](NC(=O)Nc2c(C)c(-c3cnn(C)c3)nn2-c2ccccc2)O1 (racemic) [Compound I-136]
50 | 2.1 nM | COCCN1C[C@@H](NC(=O)Nc2c(C)c(-c3ccc4nc(C)nn4c3)nn2-c2ccccc2)[C@H](c2ccnc(F)c2)O1 (racemic) [Compound I-159]
51 | 5.3 nM | COCCN1C[C@@H](NC(=O)Nc2c(C)c(-c3cnc(C(N)=O)c(C)c3)nn2-c2ccccc2)[C@H](c2ccnc(F)c2)O1 (racemic) [Compound I-165]
52 | 4.8 nM | CNC(=O)c1ncc(-c2nn(-c3ccccc3)c(NC(=O)N[C@@H]3CN(CCOC)O[C@H]3c3ccnc(F)c3)c2C)cc1C (racemic) [Compound I-166]
